# Data as given in patent US20200123137A1, “DEUTERATED CFTR MODULATORS AND METHODS OF USE” (ABBVIE S.À.R.L., priority 2016, published 2020).
# pEC50: −log10 of the molar value.
# Columns and labels:
# F508delCFTR = F508delCFTR (Homo sapiens, UniProt P13569, DEL508-508); assay: Cell Surface Expression-Horse Radish Peroxidase (CSE-HRP) assay; type: cell-based; conditions: CFBE41o-F508delCFTR-HRP cells
# Experimental: A cellular assay for measuring the F508delCFTR cell surface expression after correction with test compounds was developed in human lung derived epithelial cell line (CFBE41o-) (Veit G et al, (2012) Mol Biol Cell. 23(21): 4188-4202). This was achieved by expressing the F508delCFTR mutation along with a horseradish peroxidase (HRP) in the fourth exofacial loop and then measuring the HRP activity using luminescence readout from these cells, CFBE41o-F508delCFTR-HRP, that were incubated overnight with the test corrector compounds. […] Post incubation, the plates were washed 5 x times with Dulbecco's phosphate buffered saline (DPBS), followed by the addition of the HRP substrate, luminol (50 μL), and measuring the HRP activity using luminescence readout on EnVision® Multilabel Plate Reader (Perkin Elmer; product number 2104-0010). The raw counts from the experiment are analyzed using Accelrys® Assay Explorer v3.3. […]
# The % activity measured at each of the 8 test concentrations of the test compound was normalized to the on-plate positive control using the following formula: […]
# The maximum % activity achieved for the test compound at any tested concentration is presented in Table 1 along with the EC50 calculated using the following general sigmoidal curve with variable Hill slope equation (described as Model 42 in the Accelrys® Assay Explorer v3.3 software): […]
# F508del/F508del CFTR = molecular target: T1, F508del/F508del CFTR (Homo sapiens, UniProt P13569, DEL508-508); assay: Transepithelial Clamp Circuit (TECC-24) conductance assay on primary human bronchial epithelial cells; type: cell-based; conditions: primary hBE cells F508del/F508del
# T1 construct: cells isolated from CF patients with the homozygous mutation; endogenous in cells; host or cells: primary human bronchial epithelial (hBE) cells from F508del/F508del CF patients
# From the text: A cell based assay using the primary human bronchial epithelial cells (hBE) was used as a secondary assay to test novel F508delCFTR correctors for their activity on primary hBE cells with F508del/F508del CFTR mutation. The assay used a TECC-24 (Transepithelial Clamp Circuit for 24 wells) instrument that measures the functionality of the mutated channel by measuring the equivalent short circuit current (Ieq) generated by the polarized epithelial cells. The instrument works by measuring the transepithelial potential difference (Vt) and transepithelial resistance (Rt) in an open circuit format, and the Ieq is calculated by using Ohms law (Ieq=Vt/Rt). The assay was run in a 24-well format and all 24-wells were measured at the same time point giving a higher throughput for this assay.
# Primary human bronchial epithelial (hBE) cells from F508del/F508delCFTR patients were expanded from 1×10^6 to 250×10^6 cells (Neuberger T, Burton B, Clark H and VanGoor F; Cystic Fibrosis, Methods in Mole Biol 741; eds. Amaral M D and Kunzelmann K, 2011). […]
# The % activity measured at each of the 6 test concentrations of the test compound was normalized to the on-plate positive control using the following formula: […]
# Sequence of F508delCFTR (P13569 with tags, fused parts or gaps DEL508-508): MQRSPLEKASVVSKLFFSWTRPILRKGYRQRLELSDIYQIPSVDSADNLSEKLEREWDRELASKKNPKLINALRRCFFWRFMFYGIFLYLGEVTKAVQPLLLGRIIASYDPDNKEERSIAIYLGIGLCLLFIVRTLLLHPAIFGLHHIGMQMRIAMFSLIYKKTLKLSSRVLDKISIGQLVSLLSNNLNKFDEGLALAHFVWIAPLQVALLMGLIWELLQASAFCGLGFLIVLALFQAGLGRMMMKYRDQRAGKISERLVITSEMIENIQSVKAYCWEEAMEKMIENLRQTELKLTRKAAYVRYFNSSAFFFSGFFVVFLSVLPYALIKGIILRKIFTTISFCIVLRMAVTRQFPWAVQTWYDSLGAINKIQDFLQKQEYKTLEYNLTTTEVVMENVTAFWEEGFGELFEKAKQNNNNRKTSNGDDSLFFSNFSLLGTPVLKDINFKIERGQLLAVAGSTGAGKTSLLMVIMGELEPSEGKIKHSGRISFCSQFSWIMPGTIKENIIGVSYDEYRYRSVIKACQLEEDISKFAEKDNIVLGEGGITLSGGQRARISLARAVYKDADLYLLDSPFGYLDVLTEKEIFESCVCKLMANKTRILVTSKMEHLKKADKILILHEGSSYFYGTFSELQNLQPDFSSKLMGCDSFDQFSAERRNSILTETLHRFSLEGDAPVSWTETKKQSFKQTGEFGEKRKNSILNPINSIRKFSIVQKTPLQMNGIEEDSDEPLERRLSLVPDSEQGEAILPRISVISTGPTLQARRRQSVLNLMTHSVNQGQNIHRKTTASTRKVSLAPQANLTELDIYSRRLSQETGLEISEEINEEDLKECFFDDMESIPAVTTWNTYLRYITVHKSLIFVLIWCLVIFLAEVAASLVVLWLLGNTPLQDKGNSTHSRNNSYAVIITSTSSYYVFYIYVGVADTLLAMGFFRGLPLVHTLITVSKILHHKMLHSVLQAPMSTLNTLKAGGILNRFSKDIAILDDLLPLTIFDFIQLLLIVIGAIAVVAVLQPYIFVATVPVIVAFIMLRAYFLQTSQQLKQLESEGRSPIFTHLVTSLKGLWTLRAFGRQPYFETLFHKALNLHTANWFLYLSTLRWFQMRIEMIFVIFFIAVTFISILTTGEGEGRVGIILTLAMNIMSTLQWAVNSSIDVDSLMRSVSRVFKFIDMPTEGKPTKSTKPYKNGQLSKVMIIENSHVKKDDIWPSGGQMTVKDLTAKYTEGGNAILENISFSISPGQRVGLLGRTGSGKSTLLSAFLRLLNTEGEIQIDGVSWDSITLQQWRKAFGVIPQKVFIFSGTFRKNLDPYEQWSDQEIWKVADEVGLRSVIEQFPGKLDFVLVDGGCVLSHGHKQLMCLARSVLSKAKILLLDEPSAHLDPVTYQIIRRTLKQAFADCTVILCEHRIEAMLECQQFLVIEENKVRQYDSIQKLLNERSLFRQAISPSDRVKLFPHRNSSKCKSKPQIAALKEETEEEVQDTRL
# T1 sequence (P13569 with tags, fused parts or gaps DEL508-508): as above
compound,measurement,setting,value
"[2H]c1cc(C(=O)O)cc([2H])c1C1Oc2cc(OC(F)F)c([2H])c([2H])c2C([2H])(NC(=O)C2(c3ccc4c(c3)OC(F)(F)O4)CC2)C1([2H])[2H] [Example 1, 4-[(2R,4R)-4-({[1-(2,2-difluoro-1,3-benzodioxol-5-yl)cyclopropyl]carbonyl}amino)-7-(difluoromethoxy)(3,3,4,5,6-^2H5)-3,4-dihydro-2H-chromen-2-yl](3,5-^2H2)benzoic acid]",pEC50,"F508delCFTR; F508delCFTR cell surface expression, 18-24 hours at 33° C., luminescence readout",7.57
same,Maximum % activity,"F508delCFTR; maximum at any tested concentration, normalized to on-plate positive control (3 μM)",145%
same,pEC50,"F508del/F508del CFTR; 18-24 hours at 37° C., equivalent short circuit current (Ieq), with control potentiator",7.89
same,Maximum % activity,F508del/F508del CFTR; relative to positive control (0.15 μM) coupled with control potentiator = 100%,96%
